The results in this text go back to patent US7253169B2, “Aza compounds, pharmaceutical compositions and methods of use” (Gliamed, Inc., priority 1999, dated 2007).

One test addresses FKBP (Homo sapiens, UniProt P62942). In words: Ki Test: inhibition of peptidyl-prolyl isomerase (rotamase) activity, chymotrypsin-coupled assay. The settings on record: apparent Ki. It counts as biochemical. The source says: Inhibition of the peptidyl-prolyl isomerase (rotamase) activity of the inventive compounds can be evaluated by known methods described in the literature (Harding et al., Nature, 1989, 341:758-760; Holt et al. J. Am. Chem. Soc., 115:9923-9938). These values are obtained as apparent Ki's and are presented for representative compounds in Table V. The cis-trans isomerization of an alanine-proline bond in a model substrate, N-succinyl-Ala-Ala-Pro-Phe-p-nitroanilide, is monitored spectrophotometrically in a chymotrypsin-coupled assay, which releases para-nitroanilide from the trans form of the substrate. The inhibition of this reaction caused by the addition of different concentrations of inhibitor is determined, and the data is analyzed as a change in first-order rate constant as a function of inhibitor concentration to yield the apparent Ki values.
In a plastic cuvette are added […] of ice cold assay buffer (25 mM HEPES, pH 7.8, 100 mM NaCl), […] of FKBP (2.5 mM in 10 mM Tris-Cl pH 7.5, 100 mM NaCl, 1 mM dithiothreitol), […] of chymotrypsin (50 mg/ml in 1 mM HCl) and […] of test compound at various concentrations in dimethyl sulfoxide. […]
The absorbance at 390 nm versus time is monitored for 90 seconds using a spectrophotometer and the rate constants are determined from the absorbance versus time data files.

Test [1] deals with TH-stained dopaminergic neurons. In words: MPTP Model of Parkinson's Disease. It counts as in vivo. The settings on record: MPTP-lesioned CD1 mice; for % recovery of TH-stained dopaminergic neurons at 10 mg/kg: Mus musculus, Neuron, po, read-out: % TH recov 10 mg/kg p.o.

pKi: −log10 of the molar value.

FKBP, sequence (P62942 whole entry): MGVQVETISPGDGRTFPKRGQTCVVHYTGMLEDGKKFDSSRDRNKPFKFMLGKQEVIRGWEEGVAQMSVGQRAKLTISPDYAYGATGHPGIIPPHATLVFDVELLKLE

As to `CCC(C)(C)C(=O)C(=O)N1CCCN1C(=O)CCCCc1ccccc1` [Compound 1, 3,3-dimethyl-N-[2-(5-phenylpentanoyl) -tetrahydro-1H-1-pyrazolyl]-1,2-pentanedione], the pKi at FKBP is 5.93. Also, in test [1] (4 mg/kg s.c.), the “% TH recov 4 mg/kg s.c.” value was 14%.
Regarding `CCC(C)(C)C(=O)C(=O)N1CCCN1C(=O)CCc1ccccc1` [Compound 2, 3,3-dimethyl-N-[2-(3-phenylpropanoyl)tetra-hydro-1H-1-pyrazolyl]-1,2-pentanedione], the % recovery of TH-stained dopaminergic neurons at 10 mg/kg in test [1] (10 mg/kg p.o.) was found to be 10%.
In the case of `CCC(C)(C)C(=O)C(=O)N1CCCN1C(=O)CCC#Cc1cccnc1` [Compound 3, 3,3-dimethyl-1-[2-(5-(3-pyridyl)pent-4-ynoyl)-pyrazolidinyl]-pentane-1,2-dione], the % recovery of TH-stained dopaminergic neurons at 10 mg/kg in test [1] (10 mg/kg p.o.) was 26%.
With `CCC(C)(C)C(=O)C(=O)N1CCCN1C(=O)CCCc1ccccc1` [Compound 5, 3,3-dimethyl-1-[2-(4-phenylbutanoyl)-pyrazolidinyl]pentane-1,2-dione], the % recovery of TH-stained dopaminergic neurons at 10 mg/kg in test [1] (10 mg/kg p.o.) came to 4%.
For the molecule `CCC(C)(C)C(=O)C(=O)N1CCCN1C(=O)CCCCCc1ccccc1` [Compound 6, 3,3-dimethyl-1-[2-(6-phenylhexanoyl)-pyrazolidinyl]pentane-1,2-dione], in test [1] (10 mg/kg p.o.), the % recovery of TH-stained dopaminergic neurons at 10 mg/kg was 32%.
`CCC(C)(C)C(=O)C(=O)N1CCCN1C(=O)CCCCc1cccnc1` [Compound 7, 3,3-dimethyl-1-[2-(5-(3-pyridyl)pentanoyl)-pyrazolidinyl]pentane-1,2-dione]: the % recovery of TH-stained dopaminergic neurons at 10 mg/kg in test [1] (10 mg/kg p.o.) is 57%.
Same read-out and setting: the result for `CCC(C)(C)C(=O)C(=O)N1CCCCN1C(=O)CCCCCc1ccccc1` [Compound 12, 3,3-dimethyl-1-[2-(6-phenylhexanoyl)-perhydropyridazinyl]-pentane-1,2-dione] reads 35%.
Take `CCC(C)(C)C(=O)C(=O)N1CCCCN1C(=O)CCCCCc1cccnc1` [Compound 13, 3,3-dimethyl-2-[2-(6-(3-pyridyl)hexanoyl)-perhydropyridazinyl]-pentane-1,2-dione]: on FKBP, the pKi is 5.49. In addition, the % recovery of TH-stained dopaminergic neurons at 10 mg/kg in test [1] (10 mg/kg p.o.) came to 18%.
Take `CCC(C)(C)C(=O)C(=O)N1CCCCN1C(=O)OCCCc1ccccc1` [Compound 14, 3-phenylpropyl 2-(3,3-dimethyl-2-oxopentanoyl)-perhydropyridazine-carboxylate]: the “% TH recov 10 mg/kg p.o.” value in test [1] (10 mg/kg p.o.) came out at 3%.
On to `CCC(C)(C)C(=O)C(=O)N1CCCCN1C(=O)OCCCCc1ccccc1` [Compound 15, 4-phenylbutyl 2-(3,3-dimethyl-2-oxopentanoyl)perhydro-pyridazinecarboxylate], for which the % recovery of TH-stained dopaminergic neurons at 10 mg/kg in test [1] (10 mg/kg p.o.) turned out to be 21%.
As to `CCC(C)(C)C(=O)C(=O)N1CCCCN1C(=O)OCCCCCc1ccccc1` [Compound 16, 5-phenylpentyl 2-(3,3-dimethyl-2-oxopentanoyl)perhydro-pyridazinecarboxylate], the % recovery of TH-stained dopaminergic neurons at 10 mg/kg in test [1] (10 mg/kg p.o.) was 49%.
Consider `CCC(C)(C)C(=O)C(=O)N1CCCCN1C(=O)OCCCCc1cccnc1` [Compound 17, 4-(3-pyridyl)butyl 2-(3,3-dimethyl-2-oxopentanoyl)-perhydropyridazine-carboxylate], for which the % recovery of TH-stained dopaminergic neurons at 10 mg/kg in test [1] (10 mg/kg p.o.) stood at 38%.
Same read-out and setting: the result for `CCC(C)(C)C(=O)C(=O)N1CCCCN1C(=O)CCCCc1ccccc1` [Compound 18, 3,3-dimethyl-1-[2-({5-phenyl)pentanoyl)-perhydropyridazinyl]-pentane-1,2-dione] reads 18%; that for `O=C(OCCCCc1ccccc1)N1CCCCN1S(=O)(=O)Cc1ccccc1` [Compound 106, 4-phenylbutyl 2-[benzylsunfonyl]-perhydropyridazine-carboxylate], 23%.
On the same count and under the same terms, the result for `O=C(NC1CCCCC1)N1CCCCN1C(=O)OCCCCc1ccccc1` [Compound 154, 4-phenylbutyl 2-(N-cyclohexylcarbamoyl)-perhydropyridazine-carboxylate] reads 46%.
